Data reported in PubChem BioAssay (NCI).
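Tested at 5 concentrations; 48 h exposure; 96-well plates; endpoints linearly interpolated, else capped at highest concentration. GI50 is the concentration that inhibits growth by half. TGI: total growth inhibition.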

What was measured:
Assay in all cases: DTP human tumour cell line panel, 48 h
RPMI-8226 leukemia = tested on: RPMI-8226 leukemia
IGROV1 ovarian = tested on: IGROV1 ovarian
SW-620 colon = tested on: SW-620 colon
UO-31 renal = tested on: UO-31 renal
SF-539 CNS = tested on: SF-539 CNS
A498 renal = tested on: A498 renal
SK-MEL-5 melanoma = tested on: SK-MEL-5 melanoma
MDA-MB-231 breast = tested on: MDA-MB-231 breast
NCI-H460 lung = tested on: NCI-H460 lung
K-562 leukemia = tested on: K-562 leukemia
OVCAR-8 ovarian = tested on: OVCAR-8 ovarian
ACHN renal = tested on: ACHN renal
HOP-62 NSCLC = tested on: HOP-62 NSCLC
NCI-H23 lung = tested on: NCI-H23 lung
CCRF-CEM leukemia = tested on: CCRF-CEM leukemia
DU-145 prostate = tested on: DU-145 prostate
UACC-62 melanoma = tested on: UACC-62 melanoma
HS 578T breast = tested on: HS 578T breast
NCI-H522 lung = tested on: NCI-H522 lung
A549 NSCLC = tested on: A549 NSCLC
MDA-MB-435 = tested on: MDA-MB-435
MOLT-4 leukemia = tested on: MOLT-4 leukemia
NCI/ADR-RES ovarian = tested on: NCI/ADR-RES ovarian
SK-MEL-28 melanoma = tested on: SK-MEL-28 melanoma
SR leukemia = tested on: SR leukemia
M14 melanoma = tested on: M14 melanoma
LOX IMVI melanoma = tested on: LOX IMVI melanoma
TK-10 renal = tested on: TK-10 renal

Compound `CC/C(=C(/c1ccc(O)cc1)c1ccc(OCCNC)cc1)c1ccccc1` has a GI50 (RPMI-8226 leukemia) of 2050 nM, a TGI (RPMI-8226 leukemia) of 4.64 µM and a GI50 (IGROV1 ovarian) of 2770 nM. The TGI (IGROV1 ovarian) was 7.66 µM, the GI50 (SW-620 colon) was 1720 nM and the TGI (SW-620 colon) was 3.26 µM. It also gave a GI50 (UO-31 renal) of 1860 nM, a TGI (UO-31 renal) of 4.8 µM and a GI50 (SF-539 CNS) of 1700 nM. The TGI (SF-539 CNS) was 3.22 µM, the GI50 (A498 renal) was 1640 nM and the TGI (A498 renal) was 6.55 µM. It also gave a GI50 (SK-MEL-5 melanoma) of 1670 nM, a TGI (SK-MEL-5 melanoma) of 3.09 µM and a GI50 (MDA-MB-231 breast) of 1390 nM. For the same compound, the TGI (MDA-MB-231 breast) was 3.09 µM, the GI50 (NCI-H460 lung) was 1840 nM and the TGI (NCI-H460 lung) was 3.37 µM. It also gave a GI50 (K-562 leukemia) of 1860 nM, a TGI (K-562 leukemia) of 4.41 µM and a GI50 (OVCAR-8 ovarian) of 2140 nM. The TGI (OVCAR-8 ovarian) was 5.13 µM, the GI50 (ACHN renal) was 2640 nM and the TGI (ACHN renal) was 7.52 µM. It also gave a GI50 (HOP-62 NSCLC) of 2030 nM, a TGI (HOP-62 NSCLC) of 4.44 µM and a GI50 (NCI-H23 lung) of 2600 nM. The TGI (NCI-H23 lung) was 7.25 µM, the GI50 (CCRF-CEM leukemia) was 2390 nM and the TGI (CCRF-CEM leukemia) was 6.88 µM. It also gave a GI50 (DU-145 prostate) of 2630 nM, a TGI (DU-145 prostate) of 6.81 µM and a GI50 (UACC-62 melanoma) of 1800 nM. For the same compound, the TGI (UACC-62 melanoma) was 3.54 µM, the GI50 (HS 578T breast) was 1870 nM and the TGI (HS 578T breast) was 5.16 µM. It also gave a GI50 (NCI-H522 lung) of 1870 nM, a TGI (NCI-H522 lung) of 3.68 µM and a GI50 (A549 NSCLC) of 1890 nM. It also gave a TGI (A549 NSCLC) of 3.95 µM, a GI50 (MDA-MB-435) of 1540 nM and a TGI (MDA-MB-435) of 2980 nM. For the same compound, the GI50 (MOLT-4 leukemia) was 2460 nM, the TGI (MOLT-4 leukemia) was 7.14 µM and the GI50 (NCI/ADR-RES ovarian) was 2320 nM. For the same compound, the TGI (NCI/ADR-RES ovarian) was 5.85 µM, the GI50 (SK-MEL-28 melanoma) was 1710 nM and the TGI (SK-MEL-28 melanoma) was 3.21 µM. The GI50 (SR leukemia) was 2090 nM, the TGI (SR leukemia) was 5.46 µM and the GI50 (M14 melanoma) was 1690 nM. It also gave a TGI (M14 melanoma) of 3.31 µM, a GI50 (LOX IMVI melanoma) of 1750 nM and a TGI (LOX IMVI melanoma) of 3.17 µM. The GI50 (TK-10 renal) was 2760 nM and the TGI (TK-10 renal) was 7.76 µM.
